These results are taken from US20140004499A1, “BIOSURFACE ENGINEERING” (priority 2011, published 2014).

Molecules are shown by their SMILES.

Holding throughout (assay type): cell-based
Assay [1] deals with red blood cells (RBCs). The assay is described as follows: Localisation of biotin to RBC surface by conjugation with avidin ALEXAFLUOR (fluorescence microscopy). More on the design: key to fluorescent signal intensity grade: 1 (low); 2 (moderate); 3 (bright); 4 (very bright). How it is done: (§1) The use of aqueous solutions of the construct designated Biotin-S3-S4-S2-chol (III) and the construct designated Biotin-S3-S4-S5-DOPE (IV) in the localisation of biotin (F) to cell surfaces was also compared. Solutions of the two constructs were prepared at substantially equimolar concentrations. The use of the solutions was assessed across a concentration range from 0 to 500 μM (0.5 mM). A 0.5 mM solution of the construct designated Biotin-S3-S4-S2-chol (III) was prepared by dissolving 0.4 mg of the construct in 514 μL of PBS. […] A 0.5 mM stock solution of the construct designated Biotin-S3-S4-S5-DOPE (IV) was prepared by dissolving 2 mg of the construct in 1942 μL of phosphate buffered saline (PBS). Each 0.5 mM solution was warmed to 37° C. for 10 minutes, vortexed and sonicated for 30 seconds to ensure complete dissolution of the construct in the aqueous medium. A dilution series was prepared for each construct to provide a total volume of 100 μL at each of the following concentrations: […]. Equal volumes (40 μL) of packed, washed red blood cells (RBCs) and solutions of constructs at different concentrations were mixed in a glass kimble tube. The tubes were incubated at 37° C. for 20 minutes in a water bath with periodic (3 x) agitation. The incubated cells were washed 3× with PBS before being resuspended in a cell preservative (CELPRESOL™) for storage at 4° C. overnight.
(§2) Two equal volumes were taken from each tube and centrifuged (300×g for 2 minutes) to provide two equivalent packed cells volumes for further evaluation. One of each pair of equivalent packed cell volumes was evaluated for localisation of the biofunctional moiety biotin to the surface of the RBCs by conjugation with avidin ALEXAFLUOR™. One of each pair of the equivalent packed cell volumes was evaluated for localisation of the biofunctional moiety biotin to the surface of the RBCs by conjugation to avidinylated beads (DYNABEADS™ M-280).
Conjugation with avidin ALEXAFLUOR™ was evaluated as described in the publication of Oliver et al (2011). An aliquot containing 0.02 mg avidin ALEXAFLUOR™ was mixed with a volume ([…]) of PBS containing BSA to provide a 0.1 mg/mL solution. Equal volumes 20 μL of packed RBCs and the solution of avidin ALEXAFLUOR™ were mixed and incubated at 37° C. for 30 minutes. The cells were then washed 3× with PBS before placing a drop (10 μL) on a glass microscope slide for fluorescent microscopy (WIB filter at 400× magnification). Cells were graded for fluorescence intensity over two micrograph fields of view. Grades determined via the eye piece were correlated with the corresponding photomicrographs (1.9 sec exposure). Grades were assigned according to the following scale: 1 (low), 2 (moderate), 3 (bright) and 4 (very bright). The morphology of the cells was also recorded (“normal” or “poiked”).

Assay [2] has as its system red blood cells (RBCs). The assay is described as follows: Localisation of biotin to RBC surface by attachment of avidinylated beads (DYNABEADS M-280). How it is done:
as §1, with “The tubes were incubated at 37° C. for 20 minutes in a water bath with periodic (3 x) agitation. The incubated cells were washed 3× with PBS before being resuspended in a cell preservative (CELPRESOL™) for storage at 4° C. overnight.” left out
as §2
Conjugation with avidinylated beads (DYNABEADS™ M-280) was performed. […] The attachment of beads to cells was scored at 400× and 800× magnification on a compound microscope. An estimate of the number of beads and the presence of cell clusters was recorded for each group and compared with a negative control.

Assay [3] has as its system O group red blood cells (RBCs). In words: Serology of kodecytes with monoclonal preparations. More on the design: scale not given here. Conditions: kodecytes prepared at 200 μg/mL construct. How it is done:
The use of aqueous solutions of the construct designated Atri-S1-chol (I), the construct designated Atri-S1-S5-DOPE (V) and the construct designated Atri-S1-S5-S4-S5-DOPE (VI) in the localisation of Atri (F) to cell surfaces was also compared. (The constructs designated Atri-S1-S5-DOPE (V) and […] (VI) (FIG. 11) were prepared according to Bovin et al (2005) and Bovin et al (2009)). Volumes (40 μL) of packed, washed O group red blood cells (RBCs) were resuspended in equal volumes of solutions of each of the three constructs at a concentration of 200 μg/mL in PBS. The resuspended RBCs were incubated at room temperature for 4 hours prior to storage at 4° C. overnight. Serology was performed as described by Bovin et al (2005) using a range of monoclonal preparations and sera.

Regarding `CCCCCCCC/C=C\CCCCCCCC(=O)OCC(COP(=O)([O-])OCCNC(=O)CCCCC(=O)NCC(=O)NCC(=O)N(CC(=O)[O-])CC(=O)NCC(=O)NCC(=O)N(CC(=O)[O-])CC(=O)NCCNC(=O)CN(CC(=O)[O-])C(=O)CNC(=O)CNC(=O)CN(CC(=O)[O-])C(=O)CNC(=O)CNC(=O)CCCC[C@@H]1SC[C@@H]2NC(=O)N[C@@H]21)OC(=O)CCCCCCC/C=C\CCCCCCCC.[Na+].[Na+].[Na+].[Na+].[Na+]` (some centres unmarked) [Biotin-S3-S4-S5-DOPE (IV), reference compound], in the assay with red blood cells (RBCs) [1] (100 and 500 μM), the “staining at higher concentrations” value is on record as “poor staining”. The “fluorescent signal intensity grade” value in the assay with red blood cells (RBCs) [1] (constructs at concentrations of 10 and 25 μM, avidin ALEXAFLUOR) came to 2. Also, the “attachment of avidinylated beads, comparison of the two constructs” value in the assay on red blood cells (RBCs) [2] is given as “comparable results”.

Regarding `CC(=O)NC1C(OC2C(O)C(CO)OC(OCCCNC(=O)OC3CCC4(C)C(=CCC5C4CCC4(C)C(C(C)CCCC(C)C)CCC54)C3)C2OC2OC(C)C(O)C(O)C2O)OC(CO)C(O)C1O` (centres unmarked) [I], the Serology score in assay [3] (Anti-A (ABO1) Diagast), in assay [3] (Anti-A ALBAclone), in assay [3] (Anti-A BRG), in assay [3] (Anti-A Biotest), in assay [3] (Anti-A CSL Epiclone) and in assay [3] (Anti-A CSL) was 0 in each case. Moreover, the Serology score in assay [3] (Anti-A Diagast), in assay [3] (Anti-A Diagnostics Scotland), in assay [3] (Anti-A Lorne), in assay [3] (Anti-A Ortho-BioClone), in assay [3] (Anti-A Span) and in assay [3] (Anti-A ortho) was 0 throughout. The Serology score in assay [3] (Anti-A, B CSL) was found to be 0; in assay [3] (Anti-A, B Diagast) it was 0; in assay [3] (Anti-A, B Diagnostics Scotland), 0; in assay [3] (Anti-A/B ALBAclone), 0; in assay [3] (Anti-A/B CSL Epiclone), 0; in assay [3] (Anti-A/B Dominion (Novaclone)) it was 0. For the same compound, the Serology score in assay [3] (Anti-B (ABO2) Diagast), in assay [3] (Anti-B ALBAclone), in assay [3] (Anti-B Biotec), in assay [3] (Anti-B CSL Epiclone), in assay [3] (Anti-B CSL) and in assay [3] (Anti-B Diagast) was 0 each time. The Serology score in assay [3] (Anti-B Diagnostics Scotland), in assay [3] (Anti-B Dominion (Novaclone)), in assay [3] (Anti-B Gama), in assay [3] (Anti-B Immucor), in assay [3] (Anti-B Millipore) and in assay [3] (Anti-B Ortho-BioClone) was 0 each time. In addition, the Serology score in assay [3] (Anti-B Ortho-MoltenClone), in assay [3] (Anti-B Span), in assay [3] (Anti-B ortho) and in assay [3] (Diagast Anti-A/B (ABO3)) was 0 in each case.

Take `CCCCCCCCC=CCCCCCCCC(=O)OCC(COP(=O)([O-])OCCNC(=O)CCCCC(=O)NCCCOC1OC(CO)C(O)C(OC2OC(CO)C(O)C(O)C2NC(C)=O)C1OC1OC(C)C(O)C(O)C1O)OC(=O)CCCCCCCC=CCCCCCCCC.[Na+]` (centres unmarked) [V, reference compound]: the Serology score stood at 0 in assay [3] (Anti-A, B Diagast); 0 in assay [3] (Anti-B (ABO2) Diagast); 0 in assay [3] (Anti-B ALBAclone); 0 in assay [3] (Anti-B Biotec); 0 in assay [3] (Anti-B CSL Epiclone); 0 in assay [3] (Anti-B CSL). Also, the Serology score in assay [3] (Anti-B Diagast), in assay [3] (Anti-B Diagnostics Scotland), in assay [3] (Anti-B Dominion (Novaclone)), in assay [3] (Anti-B Gama), in assay [3] (Anti-B Immucor) and in assay [3] (Anti-B Millipore) was 0 in each case. In addition, the Serology score in assay [3] (Anti-B Ortho-BioClone), in assay [3] (Anti-B Ortho-MoltenClone), in assay [3] (Anti-B Span) and in assay [3] (Anti-B ortho) was 0 in each case.

In the case of `CCCCCCCC/C=C\CCCCCCCC(=O)OCC(COP(=O)([O-])OCCNC(=O)CCCCC(=O)NCC(=O)NCC(=O)N(CC(=O)[O-])CC(=O)NCC(=O)NCC(=O)N(CC(=O)[O-])CC(=O)NCCNC(=O)CN(CC(=O)[O-])C(=O)CNC(=O)CNC(=O)CN(CC(=O)[O-])C(=O)CNC(=O)CNC(=O)CCCCC(=O)NCCCO[C@@H]1O[C@H](CO)[C@H](O)[C@H](O[C@H]2O[C@H](CO)[C@H](O)[C@H](O)[C@H]2NC(C)=O)[C@H]1O[C@@H]1O[C@@H](C)[C@@H](O)[C@@H](O)[C@@H]1O)OC(=O)CCCCCCC/C=C\CCCCCCCC.[Na+].[Na+].[Na+].[Na+].[Na+]` (some centres unmarked) [VI, reference compound], the Serology score in assay [3] (Anti-B (ABO2) Diagast), in assay [3] (Anti-B ALBAclone), in assay [3] (Anti-B Biotec), in assay [3] (Anti-B CSL Epiclone), in assay [3] (Anti-B CSL) and in assay [3] (Anti-B Diagast) was 0 throughout. The Serology score in assay [3] (Anti-B Diagnostics Scotland), in assay [3] (Anti-B Dominion (Novaclone)), in assay [3] (Anti-B Gama), in assay [3] (Anti-B Immucor), in assay [3] (Anti-B Millipore) and in assay [3] (Anti-B Ortho-BioClone) was 0 in each case. Besides, the Serology score in assay [3] (Anti-B Ortho-MoltenClone), in assay [3] (Anti-B Span) and in assay [3] (Anti-B ortho) was 0 each time.
